The text below walks through data of ChEMBL document CHEMBL3507680, “University of Dundee, Gates Library screen for HepG2 cell viability”.

This data set is described as follows: Human HepG2 cell viability assay in 384 well format. Type of data set: toxicity, cell-based. To be noted: HepG2 cells, read-out: Inhibition. The arrangement: dose 125 nL, time 70.5 hour; cytotoxicity at 70.5 h: concentration not given beside the values.

Regarding `O=C(Cn1cc(C(=O)O)ccc1=O)Nc1ccc(Cl)cc1F`, the cytotoxicity at 70.5 h is -38%.

`COc1ccc(OC)c(C2C3=C(COC3=O)Nc3[nH]nc(C)c32)c1` (stereo not drawn): the cytotoxicity at 70.5 h was determined as 32%.

For `O=C1N(c2ccc(Br)cc2)Cc2nc(=O)[nH]n21`, the cytotoxicity at 70.5 h was -16.4%.

`O=C(O)c1cc2c(nc1O)CC(c1cccs1)CC2=O` (stereo not drawn): the cytotoxicity at 70.5 h was -3.98%.

For `O=S(=O)(NC1=NCN(CCc2cccs2)CN1)c1ccccc1`, the cytotoxicity at 70.5 h was -19.9%.

In the case of `O=C1CC(c2ccc(C(=O)O)cc2)c2ncn(-c3cccc(F)c3)c2N1` (stereo not drawn), the cytotoxicity at 70.5 h is -24.3%.

With `O=C1CC(c2ccc(C(=O)O)cc2)c2ncn(-c3ccccc3)c2N1` (stereo not drawn), the cytotoxicity at 70.5 h is -6.45%.

Consider `COc1cc(CCC(C)O)c(OC)c2c1OCO2` (stereo not drawn), for which the cytotoxicity at 70.5 h was -4.78%.

With `Cc1c(C)n(Cc2ccccn2)c2nc3c(c(N)c12)CCCC3`, the cytotoxicity at 70.5 h was -14.4%.

For the molecule `CCCNC(=O)c1cc2c(nc1O)CCC(C)C2` (stereo not drawn), the cytotoxicity at 70.5 h turned out to be 22.8%.

As for `O=c1ccc(-c2cccs2)nn1CN1CCCCCC1`, the cytotoxicity at 70.5 h is -24.8%.

As for `CC(=O)Nc1ccc(-n2ccc3nc(N4CCCC4)ncc3c2=O)cc1`, the cytotoxicity at 70.5 h was found to be 1.42%.

As for `Cc1ccc(C)c(-n2ccc3nc(N4CCCC4)ncc3c2=O)c1`, the cytotoxicity at 70.5 h was -7.78%.

As for `Cc1ccc(NS(=O)(=O)CC2=NC(=O)n3cccc3C2=O)cc1`, the cytotoxicity at 70.5 h is -36.1%.

For `O=c1[nH]c2c(c(=O)n1C1CCCCC1)CCC2Nc1ccccc1Cl` (stereo not drawn), the cytotoxicity at 70.5 h was 21.6%.

For `CCc1ccc(NS(=O)(=O)CC2=NC(=O)n3cccc3C2=O)cc1`, the cytotoxicity at 70.5 h was -5.39%.

Consider `COCCN1C(=O)CC(N2CCN(c3ccc(F)cc3)CC2)C1=O` (stereo not drawn), for which the cytotoxicity at 70.5 h amounted to 13.6%.

With `CC(C)CCNC(=O)c1sccc1N(C)S(=O)(=O)c1ccccc1`, the cytotoxicity at 70.5 h was 33.2%.

Regarding `CCCNC(=O)c1sccc1N(C)S(=O)(=O)c1ccc(Cl)cc1`, the cytotoxicity at 70.5 h is 20.9%.

`COc1cccc(N2CCN(CC(O)c3ccc(C)cc3)CC2)c1` (stereo not drawn): the cytotoxicity at 70.5 h is 3.16%.

For `O=C(O)c1nnn(-c2ccc(F)c(F)c2)c1-c1ccncc1`, the cytotoxicity at 70.5 h was -8.76%.

Turning to `CCc1ccccc1-n1nnc(C(=O)O)c1-c1ccccn1`, the cytotoxicity at 70.5 h is -8.12%.

On to `NC(=O)C1CCN(c2nc3nccc(-c4ccccn4)c3c(=O)[nH]2)CC1`, for which the cytotoxicity at 70.5 h was -3.55%.

Regarding `CCN(c1ccc(C(=O)NCCCN2CCOCC2)cc1)S(=O)(=O)CC`, the cytotoxicity at 70.5 h was 17.8%.

With `CCS(=O)(=O)Nc1ccc(C(=O)NCCCN2CCCC2)cc1`, the cytotoxicity at 70.5 h is -4.61%.

For the molecule `COc1cccc(C2CC(=O)Nc3nc(N4CCOCC4)sc32)c1OC` (stereo not drawn), the cytotoxicity at 70.5 h is -8.01%.

For `CCCNC(=O)c1c(-n2cnnn2)sc2c1CCC2`, the cytotoxicity at 70.5 h is -10.4%.

On to `O=C(Nc1ccccc1)c1nn(C2CCS(=O)(=O)C2)c2c1CCCC2` (stereo not drawn), for which the cytotoxicity at 70.5 h was -11.3%.

For the molecule `O=c1nc(CNc2ccccc2)[nH]n1Cc1ccccc1`, the cytotoxicity at 70.5 h was -13.1%.

As to `CC1CCN(c2nc(O)cc(C3CC(=O)N(C4CCCCC4)C3)n2)CC1` (stereo not drawn), the cytotoxicity at 70.5 h was -8.25%.

As for `Nc1cc(-c2c[nH]nc2C2CCCCN2C(=O)C2CCCC2)ccn1` (stereo not drawn), the cytotoxicity at 70.5 h is -7.49%.

Turning to `CN(C)S(=O)(=O)c1ccc(CNC(=O)C2CC(=O)N(C(C)(C)C)C2)cc1` (stereo not drawn), the cytotoxicity at 70.5 h was -1.42%.

For the molecule `Cc1nc(NC2CCOCC2)cc(C2CCN2S(C)(=O)=O)n1` (stereo not drawn), the cytotoxicity at 70.5 h was -6.12%.

As to `Cc1cc(C)c2nc(C)c(C(=O)N3CCC(CCN(C)C)CC3)cc2c1`, the cytotoxicity at 70.5 h was -1.81%.

In the case of `Cc1ccnc(C2CN(Cc3cnn(-c4ccccc4C(=O)O)c3)C2)n1`, the cytotoxicity at 70.5 h was -6.57%.

On to `CN(C)c1nccnc1C1CCN(c2cnccn2)CC1`, for which the cytotoxicity at 70.5 h is -3.32%.

Take `Cc1cc(C(F)(F)F)nc(C2(C)CCCN2CC(N)=O)n1` (stereo not drawn): the cytotoxicity at 70.5 h came to 11.5%.

Regarding `CN(C)c1nccnc1C1CCCN(c2cnccn2)C1` (stereo not drawn), the cytotoxicity at 70.5 h was -3.09%.

As to `CN1CCC(c2nnc3n2CCN(S(=O)(=O)c2ccccc2)C3)CC1`, the cytotoxicity at 70.5 h was -5.15%.

Turning to `CCOCCN1CCC(c2cncc(C)n2)CC1`, the cytotoxicity at 70.5 h is -1.63%.

Regarding `O=C(O)c1ccc(CN2CCCC(Cc3ccn[nH]3)C2)cc1` (stereo not drawn), the cytotoxicity at 70.5 h is -4.91%.

On to `CC(C)S(=O)(=O)N1C[C@@H](O)[C@H](N(C)Cc2ccc(F)cc2)C1`, for which the cytotoxicity at 70.5 h was 0.65%.

As for `CCn1cc(C(=O)N2C[C@H]3C[C@H](Oc4ccccc4)C[C@H]3C2)cn1`, the cytotoxicity at 70.5 h is -0.374%.

Regarding `O=C(N[C@@H]1CN(Cc2c[nH]nc2-c2ccccc2)C[C@H]1O)c1cc[nH]n1`, the cytotoxicity at 70.5 h was -9.21%.

For the molecule `CCc1cccc2cc(CN)c(=O)[nH]c12`, the cytotoxicity at 70.5 h is -10%.

As for `COCCNc1ncc(-c2onc(C)c2C)c(-c2ccco2)n1`, the cytotoxicity at 70.5 h was -5.67%.

For the molecule `Cc1noc(-c2cnc(NC(C)C)nc2-c2ccco2)c1C`, the cytotoxicity at 70.5 h was -13.3%.

Take `CS(=O)(=O)N1CCC(n2nnn(-c3ccccc3)c2=O)CC1`: the cytotoxicity at 70.5 h was -1.71%.

Regarding `Oc1nc(C2CC2)nc2c1nnn2C1CCN(Cc2ccoc2)CC1`, the cytotoxicity at 70.5 h is -6.55%.

`COCCN1CCCC(c2ccnc3c(C(N)=O)cnn23)C1` (stereo not drawn): the cytotoxicity at 70.5 h worked out at 3.17%.

For the molecule `COCC(=O)N(C)Cc1nc(N(C)C)ncc1-c1ccncc1`, the cytotoxicity at 70.5 h was -11.3%.

With `O=C(C1CC1)N1C[C@H]2CCCN(S(=O)(=O)c3ccc4c(c3)CCC4)[C@H]2C1`, the cytotoxicity at 70.5 h was 3.41%.

As to `CN(C)c1ncc(-c2ccncc2)c(CCNC(=O)C2CC2)n1`, the cytotoxicity at 70.5 h was -5.57%.

For the molecule `CCc1ccccc1NC(=O)NCc1nnc(SC)n1C`, the cytotoxicity at 70.5 h is -5.85%.

In the case of `COc1ccccc1NC(=O)NCc1nnc(SC)n1C`, the cytotoxicity at 70.5 h is -5.92%.

Regarding `CSc1nnc(CNC(=O)Nc2ccccc2Br)n1C`, the cytotoxicity at 70.5 h is -3.94%.

Regarding `Cc1cnc(-c2nc(C3CCN(Cc4ccccc4C)CC3)no2)cn1`, the cytotoxicity at 70.5 h is -8.63%.

For `Cn1cc(C2=NOC(C(=O)NC3(c4cccc(F)c4)CCCC3)C2)cn1` (stereo not drawn), the cytotoxicity at 70.5 h is -4.3%.

In the case of `CCn1cc(S(=O)(=O)NCC(c2ccccc2)N2CCOCC2)c(C)n1` (stereo not drawn), the cytotoxicity at 70.5 h amounted to 18.1%.

For the molecule `O=C(Nc1ccc2c(c1)OCCO2)c1ccc(=O)[nH]n1`, the cytotoxicity at 70.5 h came out at 15.5%.

As for `COCCC(=O)N1CCCC([C@@H]2C[C@H](C(F)F)n3ncnc3N2)C1` (stereo partly drawn), the cytotoxicity at 70.5 h is -4.06%.

Take `CC(=O)N1CCCC1c1ccc(Br)cn1` (stereo not drawn): the cytotoxicity at 70.5 h is 1.79%.

Regarding `Cn1ncc2ccc(C3CCCN(C(=O)Cc4cccs4)C3)nc21` (stereo not drawn), the cytotoxicity at 70.5 h worked out at 13.1%.

For `Cn1ccc(C(=O)NCC2(O)CCN(c3cnccn3)C2)n1` (stereo not drawn), the cytotoxicity at 70.5 h is -1.53%.

`COc1ccc(F)cc1C(=O)N1C[C@H]2C[C@H](OC)C[C@H]2C1`: the cytotoxicity at 70.5 h was -6.25%.

In the case of `CO[C@H]1C[C@@H]2CN(C(=O)Cc3ccc(C)s3)C[C@@H]2C1`, the cytotoxicity at 70.5 h is -2.91%.

Regarding `CCn1ncc(S(=O)(=O)N[C@@H]2CC[C@@H](n3ccnc3C)[C@@H]2O)c1C`, the cytotoxicity at 70.5 h is -5.15%.

Turning to `CO[C@@H]1CC[C@@H](NC(=O)c2ccc(OCCN3CCCC3)cc2)[C@H]1O`, the cytotoxicity at 70.5 h is -4.63%.

Turning to `CO[C@H]1CN(Cc2nc3ccccc3n2C)C[C@@]12CCCO2`, the cytotoxicity at 70.5 h was determined as 7.3%.

On to `Cc1cccc(C2CCCN(S(=O)(=O)c3cccnc3)C2)n1` (stereo not drawn), for which the cytotoxicity at 70.5 h was -2.36%.

`CCN(CC)C(=O)c1cc(C2(C)CCN(C(C)=O)CC2)nc(C)n1`: the cytotoxicity at 70.5 h was 4.01%.

As to `Cc1c[nH]c(C2CCCN(C(=O)CCc3c(C)n[nH]c3C)C2)n1` (stereo not drawn), the cytotoxicity at 70.5 h is -2.32%.

For `Cc1cccc(CN2CCCC(c3nccs3)C2)n1` (stereo not drawn), the cytotoxicity at 70.5 h is -1.28%.

On to `Cn1cc(C(=O)N2C[C@H]3C[C@H](Oc4ccccc4)C[C@H]3C2)cn1`, for which the cytotoxicity at 70.5 h was -3.01%.

With `Cc1c[nH]nc1C1CCCN(c2cnccn2)C1` (stereo not drawn), the cytotoxicity at 70.5 h is -2.27%.

As for `O=C1NC2(CCc3ccccc31)CCN(C(=O)c1ccncc1)C2` (stereo not drawn), the cytotoxicity at 70.5 h is -3.88%.

For `Cc1cnc(CC2COCCN(C(=O)c3cncs3)C2)cn1` (stereo not drawn), the cytotoxicity at 70.5 h was -1.74%.

In the case of `COc1ccc2c(c1)CC(C1CCOCC1)N(C(=O)c1ccnn1C)C2` (stereo not drawn), the cytotoxicity at 70.5 h was -0.842%.

Turning to `Cn1cccc1C(=O)N1CCCC1c1ccc(CN2CCOCC2)cn1` (stereo not drawn), the cytotoxicity at 70.5 h is -1.35%.

Regarding `Cc1c(S(=O)(=O)N2CCCC2c2nnc(-c3ccsc3)o2)cnn1C` (stereo not drawn), the cytotoxicity at 70.5 h was found to be 0.227%.

`O=C(c1cnc(C2CC2)nc1)N1CCCC(c2nccs2)C1` (stereo not drawn): the cytotoxicity at 70.5 h is 27.6%.

On to `c1ccc(OCCN2CCC(c3cnccn3)CC2)cc1`, for which the cytotoxicity at 70.5 h stood at 3.59%.

As to `Cc1cc(C)c2nc(C)c(C(=O)N3CCC(N4CCCC4)CC3)cc2c1`, the cytotoxicity at 70.5 h was -0.523%.

Regarding `CN1CCOC(C)(C(=O)Nc2nc(C(C)(C)C)cs2)C1` (stereo not drawn), the cytotoxicity at 70.5 h is 13.5%.

With `c1cc(C2CCN(C3CCCCC3)C2)n[nH]1` (stereo not drawn), the cytotoxicity at 70.5 h worked out at 2%.

On to `Cc1cc(C)nc(C2(C)CCCN2CCO)n1` (stereo not drawn), for which the cytotoxicity at 70.5 h was -0.984%.

`Cc1ccc(Nc2nccc(C3CN(CC(N)=O)C3)n2)nc1`: the cytotoxicity at 70.5 h is -1.76%.

Take `CC1(C(=O)N2CCOCC2)CN(Cc2ccccn2)CCO1` (stereo not drawn): the cytotoxicity at 70.5 h is 26.2%.

Turning to `CCC(=O)N1CCCC(c2cc(Nc3ncccn3)nc(C)n2)C1` (stereo not drawn), the cytotoxicity at 70.5 h was -5.83%.

For the molecule `Cn1ccc2ccnc(CC3CN(C(=O)C4CCC(F)(F)CC4)C3)c21`, the cytotoxicity at 70.5 h turned out to be 3.02%.

On to `c1cc(OCc2ccc3c(c2)OCO3)ccc1CNC1CC1`, for which the cytotoxicity at 70.5 h was 48%.

Turning to `CC1CCN(CC(=O)NC2CCN(C(C)c3ccccc3)CC2)CC1` (stereo not drawn), the cytotoxicity at 70.5 h was -12.3%.

As to `CN(C)[C@@H]1CN(Cc2ccccn2)C[C@H]1c1cn(C)c2ccccc12`, the cytotoxicity at 70.5 h is 12%.

Take `CN(C)[C@@H]1CN(Cc2ccccc2O)C[C@H]1c1cn(C)c2ccccc12`: the cytotoxicity at 70.5 h amounted to 44.4%.

Regarding `CNCc1ccc([C@@H]2CN(C(C)=O)C[C@H]2C(=O)N(C)C)cc1`, the cytotoxicity at 70.5 h is -1.57%.

As to `Cc1nc(NC(=O)C2(C)CN(C)CCO2)sc1C` (stereo not drawn), the cytotoxicity at 70.5 h is -2.07%.

Regarding `CCc1ncc(CN(CCc2ccccc2)Cc2cccs2)cn1`, the cytotoxicity at 70.5 h was -2.18%.

Regarding `Cn1cc(CN2CCC(c3cc(COc4cccc(Cl)c4)[nH]n3)C2)cn1` (stereo not drawn), the cytotoxicity at 70.5 h was -0.141%.
